# Assays:
# avocados = test: Durometer shore (firmness, ripening) of treated avocados; format: in vivo, avocado; conditions: for average increase of shore over uninfected and untreated avocados: Example 22
# Procedure: Example 9. The antifungal activity of a range of AITC and carvacrol vapor exposure times was tested against Cg in avocados. To measure the effect of the various treatments on ripening, durometer shore was taken after 7 days of incubation at ambient temperature and high humidity. All samples were wounded by removing the stem and infected by dispensing 1000 Cg spores suspended in 10 μL of water in the wound. The test groups consisted of avocados that were: infected and left untreated on the benchtop; infected and left untreated under a fume hood; exposed to the vapor of 3 mL of AITC in a Petri dish for 24 hours, 48 hours, and 72 hours; and exposed to the vapor of 3 mL of carvacrol in a Petri dish for 72 hours. FIG. 11 quantifies the infection results. […] All exposure times to AITC vapor reduced the incidence of Cg mold compared to the untreated samples. A 24 hour AITC exposure reduced the incidence of Cg mold by 90%. A 48 hour AITC exposure reduced the incidence of Cg mold by 97%. A 72 hour AITC exposure reduced the incidence of Cg mold by 83%.
# Example 10. The antifungal activity of a range of AITC vapor exposure times were tested against Cg in avocados. To measure the effect of the various treatments on ripening, durometer shore was taken after 6 days of incubation at ambient temperature and high humidity. All samples were wounded by removing the stem and infected by dispensing 1000 Cg spores suspended in 10 μL of water in each wound. The test groups consisted of avocados that were: infected and left untreated on the benchtop; infected and left untreated in a fume hood; exposed to the vapor of 3 mL of AITC in a Petri dish for 24 hours, 48 hours, and 72 hours. FIG. 13 quantifies the infection results. […] All exposure times to AITC vapor reduced the incidence of Cg mold compared to the untreated samples.
# Example 21. The antifungal activity of avocados exposed to AITC vapor and prochloraz was tested against Cg in avocados. To measure the effect of the various treatments on ripening, durometer shore was taken after 5 days of incubation at ambient temperature (about 20° C. to about 25° C.) and high humidity (about 88% relative humidity to about 93% relative humidity). All samples were wounded by removing the stem and infected by dispensing 1000 Cg spores suspended in 10 μL of water in the wound. Exposure to vapor was done by placing the avocados in an airtight container, dispensing AITC onto Whatman filter paper discs, suspending the discs in front of a battery-powered fan, closing the container and incubating the avocados for 30 minutes. After vapor exposure, the avocados were left at ambient temperature, high humidity, and assessed for Cg mold on day 5. Treatment groups consisted of avocados that were: exposed for 30 minutes to the vapor of 125 μL of AITC disposed on a filter paper disc; dipped in a solution of 0.1 g/L of prochloraz and placed to dry on a rack in front of a fan for 30 min; infected and left untreated; and uninfected and untreated. […] To prepare the 0.1 g/L of prochloraz, 10 mg of prochloraz was mixed with 10 mL of ethanol and 90 mL of water. […] A 24 hour AITC exposure reduced the incidence of Cg mold by 90%. […] The mean shore value for the untreated avocados was 28.8 (standard deviation (SD)=10.8). The mean shore value for the infected avocados was 47.3 (SD=11.8). The mean shore value of the positive control, prochloraz treated avocados was 44.3 (SD=14.7). The mean shore value of the AITC treated avocados was 61.1 (SD=10.5).
# Durometer Shore Measurement: A Fruit Hardness Tester— HPE III Fff w/Sphere Ø 5.0 mm Test Anvil is used for the measurements. The Operating Procedure is as follows: • 1) At room temperature and 1 atm pressure, switch on the measuring device and press the hull or sleeve against the specimen so that the contact surface of the pressure plate rests on the fruit. […]
# mold = test: AITC vapor against mold growth on produce in an airtight bin (general description); format: in vivo
# Procedure: The plurality of produce items is contacted with the antimicrobial agent for a length of time in a range of 1 minute to 100 hours (e.g., 10 minutes to 1 hour). The length of time is dependent on a variety of factors, such as type of produce, target pathogen, and the degree to which the enclosure is sealed. Examples include exposure times between 15 minutes and 96 hours for allyl isothiocyanate (AITC) in an airtight bin. […] Lower antimicrobial agent concentrations with longer exposure times or higher antimicrobial concentrations with shorter exposure times can also be used. For example, the plurality of produce items is contacted with the antimicrobial agent for a length of time in a range of 15 minute to 72 hours.
# A concentration of the antimicrobial agent in the headspace of the enclosure is typically in a range of about 20 parts per million by volume (ppmv) to about 5000 ppmv (e.g., about 550 ppmv to about 4800 ppmv, or about 25 ppmv to about 1250 ppmv). Depending on type of produce and exposure time in the enclosure, antimicrobial agent concentrations greater than about 2200 ppmv can sometimes damage the produce. […] In some embodiments, the antimicrobial agent is provided in a concentration to the enclosure in a headspace at least about 1200 ppmv, at least about 1250 ppmv, or about 1250 ppmv to about 5000 ppmv, or about 1250 ppmv to about 4900 ppmv.
# [1] = test system: non-Pd latent fungal infection; test: AITC vapor against non-Pd latent fungal infection in mandarins; format: in vivo; conditions: Example 5; 125 μL (730 ppm), 1 hour exposure
# Procedure: Example 5. The antifungal activity of a range of AITC vapor exposure times was tested to determine the effects against Pd in mandarins. All samples were wounded by puncturing with a screw. Mandarins were infected by dispensing 1000 Pd spores suspended in 10 μL of water in the wound. The fruit was then placed in an airtight container, 125 μL of AITC was dispensed onto a Whatman filter paper disc, the disc suspended in front of a battery-powered fan, and the container closed for 15 minutes to 2 hours. The test groups were then left at ambient temperature, high humidity, and assessed for Pd mold after 6 days. The test groups consisted of mandarins that were: uninfected and untreated; infected and untreated; infected and treated with 0.5 g/L imazalil; infected, treated with 125 μL of AITC on the filter paper, and exposed to the vapor for 15 minutes, 30 minutes, 1 hour, and 2 hours. […] A non-Pd latent fungal infection confounded results for the imazalil control and the 1 hour AITC treatment. […] A 30 minute exposure to an AITC vapor concentration of 730 ppm appeared to either substantially prevent mold infection or reduce the severity of infection. Longer exposure time increased the antifungal efficacy. […] Longer exposure times were effective at largely eliminating these pathogens.
# Botrytis cinerea (Bc) = test: Antifungal activity of AITC vapor and coating agent against Botrytis cinerea (Bc) in strawberries; format: in vivo; conditions: Example 17; suspended strawberries; day 5
compound,measurement,setting,value
"C=CCN=C=S [AITC, allyl isothiocyanate]",average increase of durometer shore over untreated avocados,"avocados; Example 9, all AITC treatments (3 mL; 24, 48, 72 hours), after 7 days, P value<0.0001",20.3 shore
same,average increase of durometer shore over infected avocados,"avocados; Example 10, all AITC treatments (3 mL; 24, 48, 72 hours), after 6 days, P value<0.005",15.4 shore
same,shore higher than the untreated avocados,"avocados; Example 21, 125 μL, 30 minutes, after 5 days",more than 30 shore
same,mean shore value,"avocados; Example 21, Cg-infected avocados, AITC 125 μL 30 minutes, prochloraz 0.1 g/L dip, after 5 days",61.1 (SD=10.5)
same,average increase of shore over uninfected and untreated avocados,"avocados; 250 μL, 30 minutes, after 5 days, P value=0.0016",about 10 shore
same,average increase of shore over uninfected and untreated avocados,"avocados; 500 μL, 30 minutes, after 5 days, P value<0.0001",about 28.5 shore
same,average increase of shore over untreated avocados,"avocados; Example 23, 500 μL AITC vapor, coating agent 40 g/L dip, after 11 days, P value<0.0001",22.5 shore
same,mold growth on the produce,"mold; AITC concentration of 1000 ppm, exposure time of 15 minutes, airtight bin",slowed mold growth on the produce
same,efficacy against mold on the produce,"mold; AITC concentration of 1000 ppm, exposure time of 30 min or longer",good efficacy
same,effect on mold growth,mold; AITC concentrations in a range of 550 ppmv to 4800 ppmv,some inhibitory effect on mold growth
same,effect on mold growth,mold; AITC concentrations over 1000 ppmv,tended to be completely inhibitory
same,response of latent pathogens to AITC vapor,[1],substantially resistant to AITC vapor
same,reduction in incidence of mold versus untreated test group,Botrytis cinerea (Bc),over 80%

# From patent publication US20230292776A1, “GAS PHASE TREATMENT OF PRODUCE” (priority 2022, published 2023)
